According to ChEMBL document CHEMBL3988442, “University of Dundee, Small-Polar-MMV Screening Library” (2021):
Several values for one entry are separate records, joined by “and”; a condition that tells them apart may be missing. Equal entries are not always repeated.

Assays:
[1] = microbe, parasite or virus in culture; details: Mycobacterium tuberculosis, 96 h, read-out: pIC50 (converted)
Tryptophan--tRNA ligase = Tryptophan--tRNA ligase (Mycobacterium tuberculosis (strain ATCC 25618 / H37Rv), UniProt P9WFT3); assay: Biochemical assay for Mt-TrpRS; type: functional
[2] = microbe, parasite or virus in culture; details: Mycobacterium tuberculosis, 72 h, read-out: pIC50 (converted)
[3] = tested on: Mycobacterium tuberculosis; assay: Cornell M. t heat shock assay; type: functional, organism-based; details: for IC50: Mycobacterium tuberculosis
Leishmania donovani = assay: Leishmania intramacrophage assay; type: functional, organism-based; details: for IC50: Leishmania donovani
[4] = In vitro enzyme assay to detect hydrolysis of chlorophenol red-beta-D-[…] directly proportional to the number of Toxoplasma stably expressing beta-galactosidase; type: functional, organism-based, Toxoplasma gondii; details: for IC50: Toxoplasma gondii
Plasmodium falciparum = assay: Calibr Malaria Delayed Death Assay SOP; type: functional, organism-based; details: for IC50: Plasmodium falciparum
[5] = target: T1, Coenzyme A biosynthesis bifunctional protein CoaBC (Mycobacterium tuberculosis (strain ATCC 25618 / H37Rv), UniProt P9WNZ1); assay: Biomol Green assay for MtCoaBC inhibitor, OD650 read; type: functional
T1 sequence (P9WNZ1 whole entry): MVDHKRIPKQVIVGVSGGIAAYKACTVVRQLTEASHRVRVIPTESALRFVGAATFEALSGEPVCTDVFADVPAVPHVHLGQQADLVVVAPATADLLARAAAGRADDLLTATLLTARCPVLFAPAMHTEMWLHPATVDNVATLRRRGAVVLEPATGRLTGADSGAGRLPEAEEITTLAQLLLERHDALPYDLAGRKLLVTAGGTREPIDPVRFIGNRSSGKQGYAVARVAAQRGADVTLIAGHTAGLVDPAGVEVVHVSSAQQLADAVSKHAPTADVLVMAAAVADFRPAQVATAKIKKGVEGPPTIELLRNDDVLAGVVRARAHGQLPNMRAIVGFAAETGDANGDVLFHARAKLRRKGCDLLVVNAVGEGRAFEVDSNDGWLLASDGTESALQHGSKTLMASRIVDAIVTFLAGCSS

ClpP1P2 = ClpP1P2 (Mycobacterium tuberculosis (strain ATCC 25618 / H37Rv), UniProt P9WPC3+P9WPC5); assay: in vitro assay to detect presence of AMC directly proportional to the activity of ClpP1P2. GHDDI collaboration.; type: functional
Histidine--tRNA ligase = target: T2, Histidine--tRNA ligase (Leishmania infantum, UniProt A4I591); assay: Leishmania infantum Histidine tRNA synthetase (LdHisRS); type: functional
T2 sequence (A4I591 whole entry): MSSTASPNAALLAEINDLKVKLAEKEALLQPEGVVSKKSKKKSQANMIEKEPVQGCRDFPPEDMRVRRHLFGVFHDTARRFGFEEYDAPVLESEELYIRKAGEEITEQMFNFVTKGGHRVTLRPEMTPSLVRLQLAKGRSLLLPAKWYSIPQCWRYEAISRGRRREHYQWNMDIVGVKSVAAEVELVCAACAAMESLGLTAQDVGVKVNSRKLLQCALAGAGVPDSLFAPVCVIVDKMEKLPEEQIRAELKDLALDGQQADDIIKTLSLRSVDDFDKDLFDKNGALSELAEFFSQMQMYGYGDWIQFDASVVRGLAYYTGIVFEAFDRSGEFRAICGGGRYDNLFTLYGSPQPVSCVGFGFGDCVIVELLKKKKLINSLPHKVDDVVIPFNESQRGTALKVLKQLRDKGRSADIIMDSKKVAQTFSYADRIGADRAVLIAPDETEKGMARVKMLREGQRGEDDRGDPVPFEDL

Lysine--tRNA ligase = Lysine--tRNA ligase (Plasmodium falciparum (isolate 3D7), UniProt Q8IDJ8); assay: Pf-KRS-1 (Lysyl-RNA Synthetase-1, KRS-1, cytosolic KRS) from Plasmodium falciparum. Inhibitor assay, 384 well plate, luminescence read.; type: functional

SMILES	IC50 [1]	IC50 [2]	IC50 [3]	also measured
CS(=O)(=O)N[C@@H]1CN(C(=O)c2cc3ccccc3s2)C[C@H]1O	> 50.1 µM	25.4 µM	24.6 µM	IC50 (Tryptophan--tRNA ligase): > 195 µM; pIC50 [3]: 4.54
Cc1cc(=O)[nH]c(-n2nc(C3CC3)cc2N)n1	41.2 µM	30.1 µM	27.5 µM	pIC50 (Leishmania donovani): < 4.3 and 4.677
Cc1ccc(CN(CCCn2ccnc2)Cc2cc(F)ccc2F)s1.O=C(O)CC(O)(CC(=O)O)C(=O)O			18.9 µM	IC50 [4]: 7.16 µM; pIC50 [3]: 4.62
Cc1ccc(Oc2cc(F)ccc2O[C@@H]2CCC[C@@H](N)[C@H]2O)cc1	47.8 µM	39.4 µM	33.6 µM	pIC50 (Plasmodium falciparum): 6.291; IC50 (Plasmodium falciparum): 0.584 µM; pIC50 (Leishmania donovani): 4.961; IC50 (Leishmania donovani): 6.4 µM; IC50 [4]: 8.59 µM; pIC50 [3]: 4.493
CN1CCCCC1c1ncc2c(n1)CCN(Cc1ccc(Cl)c(F)c1)C2 (stereo not drawn)			50.6 µM	pIC50 (Plasmodium falciparum): 5.794; IC50 (Plasmodium falciparum): 1.55 µM; pIC50 [3]: 4.295
O[C@@H]1CN(CC2=Cc3cc(Cl)ccc3OC2)CC[C@H]1N1CCCCCC1	46.9 µM	49.3 µM	52.7 µM	
Cc1nc(-n2nc(C3CC3)cc2NC(=O)C(C)C)[nH]c(=O)c1C	14.2 µM	10.2 µM	7.58 µM	pIC50 [4]: 5.686; IC50 [4]: 3.09 µM
Cc1ccc(S(=O)(=O)NCCc2ccoc2)s1	46.2 µM	38 µM	31 µM	
CC(C)C(NC(=O)c1cnc(N2CCOCC2)nc1)c1cccs1 (stereo not drawn)	48.9 µM	44.9 µM	48.2 µM	IC50 [5]: > 30.2 µM
Cc1ccccc1CN1CCCC1c1cccc(Nc2nccs2)n1 (stereo not drawn)			1.93 µM	IC50 [5]: > 30.2 µM; pIC50 [3]: 5.632
Cc1noc(NC(=O)c2cccc(Br)c2)n1	41.8 µM	46.3 µM	16 µM	pIC50 [3]: 4.54
Cc1csc(C(Cc2ccsc2)NC(=O)CN(C)Cc2ccccn2)n1 (stereo not drawn)			> 100 µM	IC50 (ClpP1P2): > 100 µM
CCN(CC)c1nc(Nc2cccc(C(C)O)c2)nc2ccccc12 (stereo not drawn)	22.9 µM	25.7 µM	12.2 µM	IC50 (ClpP1P2): > 100 µM; pIC50 [4]: 5.586; IC50 [4]: 2.08 µM
CN[C@@H]1CCC[C@@H](Oc2ccccc2Oc2ccc(C)cc2)[C@@H]1O	> 50.1 µM	35.8 µM	89.2 µM	pIC50 (Plasmodium falciparum): 6.476; IC50 (Plasmodium falciparum): 0.349 µM; pIC50 (Leishmania donovani): 5.128; IC50 (Leishmania donovani): 5.46 µM; pIC50 [3]: 4.304
Nc1cc(N2CCOCC(Cc3ccc4[nH]ccc4c3)C2)ncn1 (stereo not drawn)	13.4 µM	28.8 µM		pIC50 [3]: < 4 and < 4.31
CC(C)N(C(=O)Cn1c(-c2ccco2)cc2cccnc21)C(C)C			> 100 µM	IC50 (ClpP1P2): > 100 µM
CC(Cn1cccn1)NCc1csc(Cc2ccccc2)n1 (stereo not drawn)			12.7 µM	IC50 [5]: > 30.2 µM
Cc1cccc(CNC(Cc2ccsc2)c2nc(C)c(C)s2)n1.Cl (stereo not drawn)	> 50.1 µM	31.7 µM	8.25 µM	IC50 (ClpP1P2): > 100 µM; pIC50 [3]: 5.24
CN(C)[C@@H]1CN(Cc2ccccc2O)C[C@H]1c1cn(C)c2ccccc12			28.3 µM	IC50 (ClpP1P2): > 100 µM
Fc1cccc(Nc2nc(N3CCCC3)nc3c2CNCC3)c1	18.8 µM	23.6 µM	25.8 µM	pIC50 (Leishmania donovani): 5.271; IC50 (Leishmania donovani): 3.49 µM
CC(C)c1ncc2c(n1)CN(Cc1noc(-c3ccccc3)n1)CC2			36.9 µM	IC50 (ClpP1P2): > 100 µM
Cc1nnc(NCc2ccccc2F)c(C#N)c1C			78.6 µM	IC50 (Histidine--tRNA ligase): 16.9 µM and 23.1 µM
CC(C)C[C@H](N)COc1cccc(F)c1Oc1cccc(Cl)c1	22.6 µM	18.5 µM	13.9 µM	IC50 (ClpP1P2): > 100 µM
Cn1c(CCN2CCN(c3ccc(O)cc3)CC2)nc2ccccc21			68.5 µM	pIC50 [4]: 4.61; IC50 [4]: 23.8 µM
COc1cccc(OC)c1CNC(Cc1ccsc1)c1ccc(C)cn1 (stereo not drawn)	12.5 µM	16.4 µM	27 µM	pIC50 (Plasmodium falciparum): 5.969; IC50 (Plasmodium falciparum): 1.09 µM

SMILES	IC50 [1]	IC50 [2]	IC50 [3]	also measured
CC1(c2ccccc2)CCCN(Cc2cncn2C2CCCC2)C1 (stereo not drawn)	18.5 µM	20.4 µM	14.4 µM	IC50 [4]: 4.15 µM
Cc1ncc(CNCCO)c2cc(C(=O)c3ccc(Br)cc3)oc12.Cl			> 49 µM	pIC50 (Plasmodium falciparum): 6.356; IC50 (Plasmodium falciparum): 0.541 µM; IC50 [4]: 9.37 µM
COc1ccc(F)c(CN(CCCn2ccnc2)Cc2ccc(C)s2)c1.O=C(O)CC(O)(CC(=O)O)C(=O)O			27.4 µM	IC50 [4]: 7.3 µM; pIC50 [3]: 4.599
COc1cccc(CNCc2nc3ccccc3c(=O)[nH]2)c1			67.4 µM	IC50 (Tryptophan--tRNA ligase): > 195 µM
CN1CCCCC1c1ncc2c(n1)CCN(CCCc1ccccc1)C2 (stereo not drawn)	41.2 µM	44.5 µM	39.4 µM	pIC50 [3]: 4.46
CCn1ccc(-c2cc(NCCCOc3cccc(C)c3)nc(C)n2)n1	18.9 µM	30.2 µM	55.1 µM	pIC50 [3]: 4.417
Cl.Clc1cccc(N[C@H]2CCCN[C@H]2Cc2ccccc2)c1	17 µM	8.59 µM	7.22 µM	pIC50 (Plasmodium falciparum): 6.045; IC50 (Plasmodium falciparum): 0.981 µM
Cc1ccc(Oc2c(F)cccc2OC[C@@H](N)CC(C)C)cc1	25.5 µM	23.4 µM	25.1 µM	pIC50 (Leishmania donovani): 5.171; IC50 (Leishmania donovani): 12.4 µM
Cc1cc(C(=O)N2CCN(c3nc4c(C(C)C)cccc4s3)CC2)no1	42.6 µM	> 50.1 µM	57.9 µM	
CCc1cc(=O)[nH]c(NC2CCN(S(=O)(=O)c3ccccc3)CC2)n1			> 100 µM	IC50 [5]: > 30.2 µM
Cc1nn(C)c(C)c1CCn1cncc1-c1ccc2c(c1)CC(C)N2C.Cl (stereo not drawn)			> 100 µM	IC50 (Histidine--tRNA ligase): 43.1 µM and 43 µM; pIC50 (Plasmodium falciparum): 5.741; IC50 (Plasmodium falciparum): 1.72 µM; IC50 (Leishmania donovani): > 50.1 µM
Cc1cccc(CN2CCN(C(=O)c3cc(C4CC4)[nH]n3)CC2)c1	25 µM	25.8 µM	77.1 µM	
CN(C)CCN(C)C(=O)Cn1cccc2cc(-c3ccc(F)cc3)nc1-2			42.9 µM	pIC50 (Plasmodium falciparum): 6.323; IC50 (Plasmodium falciparum): 0.489 µM; IC50 (ClpP1P2): > 100 µM; pIC50 (Leishmania donovani): 4.872; IC50 (Leishmania donovani): 9.3 µM; pIC50 [3]: 4.438
CC(C)C[C@H](N)COc1cccc(F)c1Oc1ccc(Cl)cc1	21 µM	17.6 µM	20.5 µM	
Fc1ccccc1CN1CCC[C@@H](Cn2nnc(-c3cccs3)n2)C1	33.3 µM	16.9 µM	> 100 µM	
COc1ccc(CNC(Cc2ccsc2)c2ccc(C)cn2)c(OC)c1 (stereo not drawn)	> 50.1 µM	48.5 µM	17.9 µM	
Cc1cc2c(cc1Cl)C=CC1(CCN(CC(=O)NC3CCCC3)CC1)O2	> 50.1 µM	45.4 µM	49.9 µM	
Cc1ccc(CN(CCCn2ccnc2)Cc2cccs2)s1	25.9 µM	42 µM	19.9 µM	IC50 (Tryptophan--tRNA ligase): > 195 µM
Cc1nc(C2CCNCC2)cc(N(C)Cc2cc3cc(F)ccc3[nH]2)n1			72.3 µM	pIC50 (Plasmodium falciparum): 6.017; IC50 (Plasmodium falciparum): 0.803 µM; pIC50 (Leishmania donovani): 4.976; IC50 (Leishmania donovani): 11.9 µM; pIC50 [4]: 5.24 and 4.835
CCSCCNc1cc(C)nc2c(C)c(C)nn12	7.02 µM	5.48 µM	23.5 µM	
Oc1cc(C2CCCCN2Cc2cccs2)nc(-c2ccccn2)n1 (stereo not drawn)			17.3 µM	IC50 [4]: 2.42 µM
COc1ccc(-n2cc(CCO)cn2)cc1C			41.4 µM	IC50 (Histidine--tRNA ligase): 17.7 µM and 11.1 µM; IC50 (Lysine--tRNA ligase): > 50.1 µM; IC50 [5]: > 30.2 µM
Clc1cccc(C[C@@H]2NCCC[C@@H]2Nc2cccc(Cl)c2)c1	9.04 µM	6.67 µM	5.94 µM	
c1cnc(N2CCC(c3csc(Nc4cnccn4)n3)CC2)nc1			> 100 µM	IC50 (Plasmodium falciparum): 0.0108 µM
O=C(CN1CC(c2nc(C3CC3)no2)C1)N1CCOCC1.O=C(O)C(=O)O			> 100 µM	pIC50 [4]: 5.075; IC50 [4]: 5.21 µM
